Results: patent US20260315434A1, “USE OF GUAIACOL SESQUITERPENE LACTONE DERIVATIVES” (NANJING UNIVERSITY OF CHINESE MEDICINE, priority 2023, published 2026)
≈ marks a conversion by molar mass, not a printed value.

Legend:
[1] = test system: fibrosis-related factors (Acta2, Col1a1, Tgfb1) in liver tissue; test: CCl4-induced acute liver injury, liver fibrosis-related factor mRNA; type: in vivo, C57BL/6 mice; design: unit not given here
Procedure: (§1) They were acclimated for 7 days before use in experiments.
(§2) Mice were randomly assigned to groups. One group was arbitrarily designated as the normal group, while the remaining groups served as model group, Compound 1 group, Hydrochloride 20 group, Fumarate 21 group, and Silibinin group, with 6 mice per group. Except for the normal group receiving 10 mL olive oil/kg via injection, all other mice received 0.5 mL CCl4+9.5 mL olive oil/kg body weight via intraperitoneal injection, maintaining a CCl4 to olive oil ratio of 1:19. Starting from day 1 of modeling, Compound 1, Hydrochloride 20, and Fumarate 21 were administered orally for 3 consecutive days.
(§3) The blood was allowed to stand at room temperature for 2 hours, then centrifuged at 3000 rpm for 20 minutes. Serum was aspirated, aliquoted, and stored at −70° C. for future use. After blood collection, euthanize mice by cervical dislocation. Perform laparotomy to remove the liver. Rinse twice with pre-chilled PBS. Excise the left hepatic lobe tissue. […] Store remaining tissue at −70° C. for future use.
Q-PCR Analysis: Tissue total RNA extraction, cDNA synthesis, and PCR amplification methods are identical to Example 4. Additional primer information is as follows:
(§4) Data Statistics: All data are expressed as means f standard error of the mean (S.E.M.). Differences were analyzed for significance using analysis of variance (ANOVA). For groups showing significant differences in ANOVA, one-way ANOVA followed by Dunnett's test was performed to compare intergroup differences.

[2] = test system: inflammatory factors (TNF, IL-6, IL-1) in renal tissue; test: LPS-induced sepsis, renal inflammatory factor mRNA (Q-PCR); conditions: for Tnf mRNA expression, kidney: LPS 7.30; for Il1 mRNA expression, kidney: LPS 7.99; for Il6 mRNA expression, kidney: LPS 8.80
Description: They were acclimated for 7 days before experimentation.
The normal and model groups received equal volumes of solvent (0.5% CMC-Na) via oral gavage.
Specimen Collection: One hour after the final drug administration, mice were euthanized by cervical dislocation. The abdominal cavity was opened, and the lungs, liver, and kidneys were removed. These organs were rinsed twice with pre-chilled PBS. Tissue samples were excised from the mouse lungs, left hepatic lobe, and kidneys. […] Remaining tissues were stored at −70° C. for future use.
Accurately weigh 20 mg of kidney, lung, and liver tissue. Rinse with pre-chilled PBS solution, cut into small pieces using ophthalmic scissors, and place into a glass homogenizer. Add 1 mL of Trizol reagent and grind to prepare tissue homogenate. Transfer the homogenate to a RNAse-free 1.5 mL EP tube and lyse on ice for 10 min. Add 200 μL chloroform, vortex vigorously, and let stand on ice for 3-5 min. Centrifuge at 12,000 rpm and 4° C. for 15 min. Carefully transfer the supernatant to a new RNAse-free 1.5 mL EP tube. Add an equal volume of pre-chilled isopropanol, incubate on ice for 30 min, then centrifuge at 12,000 rpm and 4° C. for 10 min. Discard the supernatant. […] Subsequently, dissolve the pellet in 10 μL DEPC-treated water. Dilute 1 μL of the total RNA solution 100-fold and measure the OD values at 260 nm and 280 nm using a full-wavelength microplate reader.
Following the method described in the kit manual, subsequent experiments were conducted using a 20 μL reverse transcription reaction system:
Primers were designed based on the nucleotide sequence of the mouse in GenBank and synthesized.
Perform subsequent experiments using a 20 μL reaction system according to the kit instructions:
After adding the above reagents to micro reaction tubes, seal them with the cap and place them in the Q-PCR instrument. Set the parameters according to the following reaction conditions to perform the amplification experiment.
Record the threshold cycle (Ct) values for each group and perform calculation and analysis using the 2^−ΔΔCt method (setting the expression level of the reference gene Gapdh as 1 to correct the expression levels of the target genes).
Data Statistics: All data are presented as Means±S.E.M. Analysis of variance (ANOVA) was performed to assess the significance of differences. Groups showing significant differences in ANOVA were further compared using one-way ANOVA and Dunnett's test. A P-value <0.05 was considered statistically significant.

H22 cells = test: Antitumor efficacy combined with anti-PD-L1 monoclonal antibody, H22 xenograft; type: in vivo, Balb/c mice; conditions: 2 weeks; for combination with anti-PD-L1 monoclonal antibody vs. single agents, H22: 2.5 mg/kg/day i.p., result in words; for Tumor inhibition rate (%) / Tumor weight: dose 2.5 (head μmol/kg/day; text 2.5 mg/kg/day), i.p. daily, H22
Procedure: H22 cells were cultured and expanded in vitro. An appropriate number of cells in the logarithmic growth phase was resuspended in a mixture of serum-free RPMI 1640 medium and Matrigel (1:1). Under aseptic conditions, prepare a2×10^6/100 μL cell suspension. Using a syringe, inject 100 μL of the cell suspension subcutaneously into the left forelimb axilla of male Balb/c mice. […] Compounds 20 and 103 were administered daily via intraperitoneal injection, while anti-PD-L1 monoclonal antibody was administered every three days via intraperitoneal injection for a 2-week treatment period. During the treatment period, mouse body weight and tumor diameter were measured daily. At the end of the experiment, mice were euthanized by cervical dislocation, and tumors were removed and weighed. Tumor volume (TV) was calculated using the formula: TV=½×a×b^2, where a represents the longest diameter of the tumor and b represents the shortest diameter.

serum ALT and AST = test: CCl4-induced acute liver injury, serum ALT and AST; type: in vivo, C57BL/6 mice
Procedure: as §1, §2, §3
Serum AST and ALT Assay: Use 10 μL of each sample for testing. Determine mouse serum AST and ALT levels according to the operating manual. Measure absorbance at 510 nm using an enzyme-linked immunosorbent assay (ELISA) reader. Calculate sample concentration (U/L) based on the standard curve.
as §4

[3] = test system: inflammatory factors (TNF, IL-6, IL-1) in renal tissue; test: Lupus nephritis, renal inflammatory factor mRNA; type: in vivo, MRL/lpr mice; conditions: 8 weeks
Procedure: Experimental animals: MRI/MpJ and MRL/lpr mice, female, 10 weeks old, purchased from GemPharmatech LLC. Production license number: SCXK(Su)2023-0009. […] They were acclimated for 7 days before use in experiments.
Oral administration was performed continuously for 8 weeks.
Allow blood to stand at room temperature for 2 hours, then centrifuge at 3000 rpm for 20 minutes. Aspirate the serum, aliquot it, and store at −70° C. for future use. After blood collection, euthanize mice by cervical dislocation. Open the abdominal cavity, remove kidneys, and dissect out perirenal fat and capsules. […] Store remaining tissues at −70° C. for future use.

[4] = test system: renal injury markers (Kim-1, Ngal) in kidney tissue; test: Diabetic nephropathy, renal injury marker mRNA; type: in vivo, C57/BL6J mice; conditions: 8 weeks
Procedure: Experimental animals: C57/BL6J mice, male, 12 weeks old, purchased from GemPharmatech LLC. Production license number: SCXK(Su)2023-0009. […] Animals were acclimated for 7 days before use in experiments.
Administer streptozotocin (STZ, 50 mg/kg) via intraperitoneal injection for 5 consecutive days. After 72 hours, select mice with fasting blood glucose levels exceeding 16.7 mmol/L as model mice. […] Model mice were fed a high-fat diet (HFD) providing 60% of energy from fat for 8 weeks. After 8 weeks, gavage administration commenced.
Specimen Collection: One hour after the last drug administration, enucleate the eyeball to collect blood. Allow blood to stand at room temperature for 2 hours, then centrifuge at 3000 rpm for 20 minutes. Aspirate the serum, aliquot it, and store at −70° C. for future use. After blood collection, euthanize the mice by cervical dislocation. Open the abdominal cavity, remove the kidneys, and dissect away the perirenal fat and capsule. Store the tissue at −70° C. for future use.

[5] = test system: serum creatinine and blood urea nitrogen; test: Folic acid-induced acute kidney injury, serum creatinine and urea; type: in vivo, C57BL/6 mice; design: unit not given here; conditions: folic acid acute model
Procedure: Except for the normal group, all other mice were administered folic acid (250 mg/kg) dissolved in 0.9% NaHCO3 solution via intraperitoneal injection to establish an acute kidney injury model.
The blood was allowed to stand at room temperature for 2 hours, then centrifuged at 3000 rpm for 20 minutes. Serum was aspirated, aliquoted, and stored at −70° C. for future use. Following blood collection, euthanize mice by cervical dislocation. Perform laparotomy to remove kidneys, dissect out perirenal fat and capsules. […] Paraffin-embedded specimens undergo HE staining; remaining tissue is stored at −70° C. for future use.
Serum Creatinine (Scr) and Blood Urea Nitrogen (BUN) Level Assay: 10 μL of serum from each sample was used for creatinine and urea level detection. Samples were added sequentially strictly following the kit instructions. After incubation at 37° C., absorbance values were measured using an enzyme-linked immunosorbent assay (ELISA) reader. The concentration levels of each indicator were calculated based on the standard curve.

[6] = Water solubility testing of compounds (HPLC); conditions: deionized water, water, Water-solubility, 37 °C

Compound	Acta2 mRNA expression, liver ([1]; 1 mg/kg oral)	Col1a1 mRNA expression, liver ([1]; 1 mg/kg oral)	Tgfb1 mRNA expression, liver ([1]; 1 mg/kg oral)	Tnf mRNA expression, kidney ([2]; 1 mg/kg oral)	Il1 mRNA expression, kidney ([2]; 1 mg/kg oral)	Il6 mRNA expression, kidney ([2]; 1 mg/kg oral)	combination with anti-PD-L1 monoclonal antibody vs. single agents, H22 (H22 cells)	Tumor inhibition rate (%) (H22 cells)	Tumor weight (H22 cells) [g]	ALT (serum ALT and AST; 1 mg/kg oral) [U/L]	AST (serum ALT and AST; 1 mg/kg oral) [U/L]	Il1 mRNA expression, kidney ([3]; 30 mg/kg oral)	Il6 mRNA expression, kidney ([3]; 30 mg/kg oral)	Tnf mRNA expression, kidney ([3]; 30 mg/kg oral)	Kim-1 mRNA expression, kidney ([4]; 1 mg/kg gavage)	Ngal mRNA expression, kidney ([4]; 1 mg/kg gavage)	Kim-1 mRNA expression, kidney ([4]; 10 mg/kg gavage)	Ngal mRNA expression, kidney ([4]; 10 mg/kg gavage)	BUN ([5]; 0.1 mg/kg oral)	Scr (serum creatinine) ([5]; 0.1 mg/kg oral)	also measured
CN(C)C[C@@H]1C(=O)O[C@H]2[C@H]1CC[C@@]1(C)C[C@]13CC[C@@](C)(O)[C@H]23 [Compound 20]	1.85 ± 0.77	1.16 ± 0.26	0.92 ± 0.21	6.20 ± 0.60	2.76 ± 0.59	2.43 ± 0.64	synergistic effect	48.67	0.64 ± 0.09	85.02 ± 15.84	153.34 ± 27.59	6.01 ± 0.99	11.80 ± 1.90	4.04 ± 0.33	1.68 ± 0.17	1.38 ± 0.17	0.64 ± 0.10	0.96 ± 0.13	–	–	–
CN(C)C[C@@H]1C(=O)O[C@H]2[C@H]1CC[C@@]1(C)C[C@]13CC[C@@](C)(O)[C@H]23 [Compound 21]	2.18 ± 0.42	1.26 ± 0.27	0.88 ± 0.16	6.04 ± 1.62	2.82 ± 0.33	2.70 ± 0.52	–	–	–	95.82 ± 2.72	215.82 ± 63.48	–	–	–	–	–	–	–	30.08 ± 3.03	90.69 ± 12.83	Acta2 mRNA expression, liver ([1]; 0.1 mg/kg oral): 2.86 ± 0.26; Col1a1 mRNA expression, liver ([1]; 0.1 mg/kg oral): 1.83 ± 0.53; Tgfb1 mRNA expression, liver ([1]; 0.1 mg/kg oral): 1.08 ± 0.29; Tnf mRNA expression, kidney ([2]; 0.1 mg/kg oral): 6.70 ± 0.80; Il1 mRNA expression, kidney ([2]; 0.1 mg/kg oral): 6.56 ± 0.88; Il6 mRNA expression, kidney ([2]; 0.1 mg/kg oral): 6.05 ± 0.19; ALT (serum ALT and AST; 0.1 mg/kg oral): 132.32 ± 31.96 U/L; AST (serum ALT and AST; 0.1 mg/kg oral): 385.64 ± 28.70 U/L; BUN ([5]; 1 mg/kg oral): 18.95 ± 2.58; Scr (serum creatinine) ([5]; 1 mg/kg oral, 1 mg/kg): 50.39 ± 7.65
CC1=C2CC[C@@](C)(OC(=O)N3CCCCC3)[C@@H]2[C@H]2OC(=O)[C@@H](CN(C)C)[C@@H]2CC1 [Compound 102]	–	–	–	–	–	–	–	–	–	–	–	–	–	–	–	–	–	–	–	–	solubility [6]: 132 mg/mL (≈ 328 mM)
CC1=C2CC[C@@](C)(OC(=O)N3CCCC3)[C@@H]2[C@H]2OC(=O)[C@@H](CN3CCCC3)[C@@H]2CC1 [Compound 103]	–	–	–	–	–	–	synergistic effect	41.90	0.70 ± 0.08	–	–	4.11 ± 0.41	1.83 ± 0.91	4.10 ± 0.67	0.98 ± 0.41	2.34 ± 0.39	0.75 ± 0.24	2.08 ± 0.34	23.42 ± 13.11	74.95 ± 21.37	solubility [6]: 278 mg/mL (≈ 668 mM); Il1 mRNA expression, kidney ([3]; 10 mg/kg, oral): 6.78 ± 0.96; Il6 mRNA expression, kidney ([3]; 10 mg/kg, oral): 2.47 ± 0.53; Tnf mRNA expression, kidney ([3]; 10 mg/kg, oral): 7.24 ± 3.10; BUN ([5]; 1 mg/kg oral): 20.38 ± 10.82; Scr (serum creatinine) ([5]; 1 mg/kg oral): 73.88 ± 14.26; BUN ([5]; 10 mg/kg oral): 17.72 ± 7.78; Scr (serum creatinine) ([5]; 10 mg/kg oral): 45.19 ± 7.41
